{"source": "patent US20240325374A1", "about": "“INHIBITING INTRACELLULAR PATHOGENS” (THE RESEARCH INSTITUTE AT NATIONWIDE CHILDREN'S HOSPITAL, priority 2021, published 2024)", "key": {"[1]": {"tested_on": "S. typhimurium wild-type strain ATCC 14028", "assay": "Bacterial growth in macrophages (intracellular CFU), wild-type S. typhimurium in J774.1", "type": "cell-based", "from_the_text": "(§1) Hoang et al., International Journal of Pharmaceutics, 2014. 477(1-2): p. 334-343.\nThe J774.1 cells were infected with S. typhimurium and treated with KH-2."}, "S. typhi strain TY2": {"tested_on": "S. typhi strain TY2", "assay": "Bacterial growth in macrophages (intracellular CFU), S. typhi in J774.1", "type": "cell-based", "settings": "infected J774.1, 24 hrs post treatment", "from_the_text": "as §1"}, "[2]": {"tested_on": "PLB-985 neutrophil-like cells", "assay": "Neutrophil reactive oxygen species production assay", "type": "cell-based", "settings": "various concentrations, luminol chemiluminescence for 1 hour", "method": "PLB-985 cells that were cultured in RPMI supplemented with 10% FBS and penicillin-streptomycin (100 μg/ml each) were differentiated to a neutrophil-like phenotype by 6-day incubation in RPMI supplemented with 0.5% N,N-dimethylformamide, 0.5% FBS, 1% Nutridoma-SP (Roche; Mannheim, Germany), […] L-glutamine, and 1× penicillin/streptomycin. Media was replaced on day 3. On day 6 after differentiation, the medium was removed and replaced with 100 μl fresh medium containing different concentrations of KH-1-2. Cells in the positive control group were stimulated with 400 ng PMA/ml. Cells in the negative control group were treated with an equivalent concentration of DMSO. All groups were supplied with luminol (final concentration of 500 μM) and reactive oxygen species (ROS) production at 37° C. was monitored in triplicate by luminol-dependent chemiluminescence measured every 2 minutes for 1 hour using a Spectra Max M3 plate reader."}, "macrophages": {"tested_on": "macrophages", "assay": "Toxicity of compound alone to macrophages by LDH release", "type": "cell-based", "settings": "effective concentrations"}, "uninfected mice": {"tested_on": "uninfected mice", "assay": "Toxicity study of KH-1-2 in vivo", "method": "To examine the toxicity of KH-1-2, mice were intraperitoneally (i.p.) given KH-1-2 that was dissolved in 200 μl of polyethylene glycol 400 (PEG 400)-0.9% saline-ethanol (50:35:15) at 1 mg and 10 mg/kg of body weight per day for 12 consecutive days. Mice in the control groups received 200 μl of PEG-saline-ethanol. The experimental animals were observed daily throughout the study for clinical signs, and mortality. At the end of the experiment, mice were sacrificed, and liver, spleen, and kidney were collected, fixed in 4% paraformaldehyde for 72 hrs, processed and stained with hematoxylin and eosin (H&E) for histopathologic evaluation, which was performed at the Morphology Core at Nationwide Children's Hospital.\nTo examine the in vivo toxicity of KH-1-2, uninfected mice were given KH-1-2 intraperitoneally in 200 μl of polyethylene glycol 400 (PEG 400)-0.9% saline-ethanol (50:35:15) at 1 and 10 mg/kg body weight daily for 12 consecutive days. Mice in the control group were treated with an equal amount of diluent. Mice were monitored for clinical signs and at day 13, the liver, spleen, and kidney were collected for histopathologic evaluation."}, "[3]": {"tested_on": "ciprofloxacin-resistant S. typhimurium", "assay": "Mouse model of typhoid fever, ciprofloxacin-resistant S. typhimurium, survival", "type": "in vivo, BALB/c mice", "method": "S. typhi is a human-restricted pathogen and is unable to colonize in mice. However, S. typhimurium causes a typhoid fever-like disease in mice and is widely used as a model to study human typhoid fever. Johnson, R., E. Mylona, and G. Frankel, Cell Microbiol, 2018. 20(9): p. e12939. […] Mice were infected with the ciprofloxacin-resistant S. typhimurium at a lethal dose of 10^6 CFU per mouse in 200 μl PBS via the i.p. route.\nAfter determining the maximum tolerable dose of KH-1-2 by the i.p. route (10 mg/kg of body weight per day), the protective efficacy of KH-1-2 as a treatment for typhoid fever was evaluated. Mice (4 or 5 mice per group) were infected at day 0 with a lethal dose of the ciprofloxacin-resistant S. typhimurium isolate as described above. One day post-infection, the infected mice were given KH-1-2 prepared in 200 μl PBS at 0.05, 0.1, and 0.25 mg/kg body weight per day via i.p. delivery for 14 consecutive days.\nWe next sought to examine the effectiveness of delivering KH-1-2 for controlling a ciprofloxacin-resistant S. typhimurium isolate in a mouse model of typhoid fever. Mice were challenged with a lethal dose of bacteria via oral gavage and the infected mice were i.p. treated with KH-1-2 prepared in 200 μl PBS at 0.05, 0.1, and 0.25 mg/kg body weight/day for 14 consecutive days. […] As expected, all mice in the control group were moribund before or at day 12 post-infection."}, "[4]": {"tested_on": "S. typhimurium-infected J774.1 macrophages", "assay": "LDH release from Salmonella-infected macrophages", "type": "cell-based, murine", "settings": "5 μM, 10 μM and 20 μM, after 24 h", "method": "The strategy to identify host-targeted compounds is outlined in FIG. 1. Briefly, J774.1 macrophages in suspension at 3×10^6 cells/ml were infected with S. typhimurium at a multiplicity of infection (MOI) of 10 for 1 hour with orbital shaking at 80 rpm. […] The infected macrophages were resuspended in a medium containing 10 μg/ml gentamicin, seeded onto 96-well plates at 10^5 cells/well in 150 μl medium, and allowed to adhere to the well for three hours. The infected cells in each well were then treated with 25 μM of each compound from the ATP mimetic library using a multichannel pipette. […] After 24 hours of incubation, an LDH assay (Roche Applied Science, Indianapolis, IN) was performed using 50 μl of supernatant from each well. Absorbance at 570 nm was determined via a plate reader Spectra Max M3. […]\nWe developed a cell-based assay to screen 3000 compounds of an ATP-mimetic library purchased from ChemBridge using J774.1 macrophages for those that protect S. typhimurium-infected macrophages from death. The viability of Salmonella-infected J774.1 cells was determined by measuring LDH release from the infected cells. […] To examine whether the reduction in LDH release was due to the limited growth of the bacteria intracellularly, the infected cells were treated with various concentrations of KH-1, and the intracellular bacterial load was determined at 24 hours post-treatment. […]"}, "S. typhimurium [5]": {"tested_on": "S. typhimurium", "assay": "Broth antibacterial assay (OD600 in LB)", "type": "cell-based", "settings": "KH-2 10 μM, 20 μM and 50 μM", "method": "An equivalent amount of DMSO was added in a control group. The bacterial growth was monitored at an optical density at 600 nm (OD600) at the indicated time points using a plate reader Spectra Max M3.\nOvernight cultures of S. typhimurium were sub-cultured (1:100) in fresh Luria-Bertani (LB) broth in presence of different concentration of KH-2 and incubated at 37° C. The vehicle control (DMSO) groups were included. The experiments were performed in 96-well plates. The bacterial growth was monitored at different time-points by measuring optical density at 600 nm (OD600)."}, "S. typhimurium [6]": {"tested_on": "S. typhimurium", "assay": "KH-2 protection of mice from lethal S. typhimurium infection, survival", "type": "in vivo, BALB/c mice", "settings": "0.5, 1.0, 2.5 and 5 mg/kg/day i.p., day 1 to day 12, oral infection 10^6 bacteria/mouse, survival to day 14", "method": "Pathogen-free 6- to 8-week-old female BALB/c mice were purchased from Harlan Sprague. Mice (3 mice/group, except the vehicle control group) were provided food and water ad libitum in sterile microisolator cages and allowed to acclimatize for 3 days before challenge. Mice were orally infected with 10^6 bacteria/mouse (day 0) in 200 μl PBS. The infected mice were intraperitoneally given KH-2 at different doses (5 mg, 2.5 mg, 1 mg, and 0.5 mg/kg body weight/day) in 200 μl PBS from day 1 to day 12 post infection. Vehicle (DMSO) was added as the control group. The mice were monitored for survival until day 14 post infection. […] A mouse model of typhoid fever was used to assess the efficacy of KH-2 in increasing the survival rate of infected mice."}}, "data": [{"smiles": "O=C1c2oc3ccccc3c(=O)c2C(c2cccc(Oc3ccccc3)c2)N1Cc1ccc(F)cc1", "note": "(stereo not drawn) [KH-1-2, 2-(4-fluorobenzyl)-1-(3-phenoxyphenyl)-1,2-dihydrochromeno[2,3-c] pyrrole-3,9-dione]", "values": [{"measurement": "EC50", "setting": "[1]; Salmonella enterica, infected J774.1 cells, CFU at 24 hrs post treatment, % of DMSO control, read-out: half maximal effective concentration (EC50) on S. typhimurium", "value": 2600, "unit": "nM"}, {"measurement": "reduction in bacterial load in infected macrophages", "setting": "[1]; in vitro treatment of Salmonella infection", "value": "8- to 10 fold"}, {"measurement": "intracellular bacterial growth in combination with sub-optimal ciprofloxacin", "setting": "[1]; infected macrophages, with sub-optimal dose of ciprofloxacin, 24 hours post-treatment", "value": "further reduces Salmonella growth inside macrophages"}, {"measurement": "intracellular growth of S. typhi, compared with KH-1", "setting": "S. typhi strain TY2", "value": "more effective at reducing the intracellular growth of S. typhi"}, {"measurement": "reactive oxygen species (ROS) production", "setting": "[2]", "value": "does not involve in induction of reactive oxygen species (ROS) production"}, {"measurement": "toxicity to macrophages as measured by LDH release", "setting": "macrophages", "value": "not toxic to macrophages at the effective concentrations"}, {"measurement": "liver histopathology", "setting": "uninfected mice; 1 mg/kg i.p. daily", "value": "no adverse effects"}, {"measurement": "liver histopathology", "setting": "uninfected mice; 10 mg/kg i.p. daily", "value": "minimal alterations including increased infiltration of lymphocytic cells and neutrophils"}, {"measurement": "maximum tolerable dose", "setting": "uninfected mice; i.p. route, mice", "value": "10 mg/kg of body weight per day"}, {"measurement": "clinical signs", "setting": "uninfected mice; uninfected mice, i.p., 1 and 10 mg/kg body weight daily, 12 consecutive days", "value": "no adverse clinical signs"}, {"measurement": "immune cell migration and apoptosis in liver, spleen, kidney", "setting": "uninfected mice; uninfected mice, i.p., 1 and 10 mg/kg daily, 12 days", "value": "No increase in immune cell migration or significant apoptosis"}, {"measurement": "histologic evaluation of the liver, spleen, and kidney", "setting": "uninfected mice; uninfected mice, i.p., 1 and 10 mg/kg daily, 12 days, organs at day 13", "value": "no dose-related macroscopic or microscopic findings"}, {"measurement": "survival", "setting": "[3]; 0.1 mg/kg body weight/day i.p., 14 consecutive days, lethal dose 10^6 CFU/mouse", "value": 60, "unit": "%"}, {"measurement": "survival versus control untreated group", "setting": "[3]; 0.05, 0.1 and 0.25 mg/kg body weight/day i.p., 14 days, p<0.05", "value": "significantly greater survival"}]}, {"smiles": "COC(=O)c1cccc(COC(=O)c2cc(O)nc3ccccc23)c1", "note": "[KH-2, 3-(methoxycarbonyl)benzyl 2-hydroxy-4-quinolinecarboxylate]", "values": [{"measurement": "lactate dehydrogenase (LDH) release from Salmonella infected J774.1 macrophages", "setting": "[4]", "value": "reduced lactate dehydrogenase (LDH) release from Salmonella infected J774.1 macrophages"}, {"measurement": "growth of Salmonella in J774.1 macrophages (intracellular CFU)", "setting": "[1]; KH-2 5 μM, 10 μM and 20 μM, after 24 hours", "value": "inhibits the growth of Salmonella in J774.1 macrophages"}, {"measurement": "growth of Salmonella in Luria-Bertani (LB) bacterial growth media (OD600)", "setting": "S. typhimurium [5]", "value": "does not inhibit the growth of Salmonella in Luria-Bertani (LB) bacterial growth media"}, {"measurement": "survival of mice after lethal Salmonella infection", "setting": "S. typhimurium [6]", "value": "protects mice from lethal Salmonella infection"}]}]}
